Data set [1] concerns the target T1, KRas G12D (Homo sapiens (Human), UniProt P01116, G12D). The data set can be described thus: KRas G12D Binding Assay (TR-FRET displacement of Cy5 labelled tracer). Particulars: GDP-loaded KRAS G12D (amino acids 1:169), 60 minute incubation at 22° C. How it is done: After a 60 minute incubation at 22° C., the reaction was measured using a PerkinElmer EnVision multimode plate reader via TR-FRET dual wavelength detection, and the percent of control (POC) calculated using a ratiometric emission factor. […] The POC values were fit to a 4-parameter logistic curve and the IC50 value was determined as the concentration where the curve crosses 50 POC.
ND stands for “not determined.”
In general terms: Time-resolved FRET reads energy transfer from a long-lived donor to a nearby acceptor.
Target sequence in this assay (P01116 other isoform, or with tags, fused parts or gaps G12D): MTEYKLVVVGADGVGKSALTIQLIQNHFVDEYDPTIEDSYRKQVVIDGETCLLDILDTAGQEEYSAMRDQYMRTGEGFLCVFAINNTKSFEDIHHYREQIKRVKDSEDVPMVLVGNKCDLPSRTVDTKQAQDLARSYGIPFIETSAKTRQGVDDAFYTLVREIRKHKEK

For data set [2], the target named is T1, KRas G12D. The data set can be described thus: KRas G12D Surface Plasmon Resonance (SPR) Binding Assay. As to conditions: Biacore T200, immobilized biotinylated KRAS protein, 1:1 binding model. A general note: In SPR one partner is held on a chip, and binding of the other changes the refractive index at the surface.
Target sequence in this assay (P01116-2 other isoform, or with tags, fused parts or gaps G12D): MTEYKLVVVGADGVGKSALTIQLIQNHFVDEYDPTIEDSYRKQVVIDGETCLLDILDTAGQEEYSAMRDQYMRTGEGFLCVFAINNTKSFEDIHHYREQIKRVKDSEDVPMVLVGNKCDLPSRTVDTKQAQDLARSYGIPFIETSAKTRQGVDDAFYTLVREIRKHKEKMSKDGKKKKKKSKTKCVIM
Data set [3] concerns KRas G12D-mediated phosphorylation of ERK in AGS cells (ATCC CRL-1739) expressing G12D. Put plainly: Inhibition of KRas G12D-mediated Phosphorylation of ERK in AGS cells. As to conditions: Homo sapiens. The data set is classed as cell-based. How it is done: Cells were plated in tissue culture treated 96 well plates at a density of 40,000 cells/well and allowed to attach for 12-14 hours. Diluted compounds were then added in a final concentration of 0.5% DMSO. After 3 hours, the medium was removed, 150 μL of 4.0% formaldehyde was added and the plates incubated at room temperature for 20 minutes. The plates were washed with PBS, and permeabilized with 150 μL of ice cold 100% methanol for 10 minutes. Non-specific antibody binding to the plates was blocked using […] Licor blocking buffer (Li-Cor Biotechnology, Lincoln Nebr.) for 1 hour at room temperature.
The amount of phospho-ERK was determined using an antibody specific for the phosphorylated form of ERK and compared to the amount of GAPDH. Primary antibodies used for the detection were added as follows: Phospho-ERK(Cell Signaling cs-9101) diluted 1:500 and GAPDH(Millipore MAB374) diluted 1:5000 in Licor block+0.05% Tween 20. The plates were incubated for 2 hours at room temperature. The plates were washed with PBS+0.05% Tween 20.
Secondary antibodies used to visualize primary antibodies were added as follows: Anti-rabbit-680 diluted 1:1000 and Anti-mouse-800 diluted 1:1000 both in Licor block+0.05% TweeN20, and were incubated for 1 hour at room temperature. The plates were washed with PBS +0.05% Tween 20. A 100 μL aliquot of PBS was added to each well and the plates were read on a Li-Cor Odyssey CLX plate reader.

The nature of data set [4]: Whole Blood Stability (WBS), human whole blood. The data set is classed as in vitro ADME.
Description: Compounds (2 μM) were incubated at 37° C. for 0, 10, 30, 60, and 120 min in a 1:1 (v/v) blood and PBS, pH 7.4. Diluted blood was preincubated for 15 min at 37° C. before the reactions were initiated with the dosing of the compound. At the end of incubation, the same volume of water was mixed with the spiked blood samples, and then stop solution (200 ng/mL tolbutamide and 200 ng/mL labetalol in MeOH) was added to precipitate protein. Mixed thoroughly. Samples were centrifuged, and supernatants were analyzed by LC-MS/MS.
[5] abbreviates: phospho-ERK(Thr202/Tyr204) normalized to GAPDH, AGS cells, 3 hours, read-out: IC50.

Like-named read-outs stand apart in the source and are kept apart here.

Turning to `N#CC[C@@H]1C[C@@H]2CN(c3nc(OC[C@@]45CCCN4C[C@H](F)C5)nc4c(F)c(-c5cc(O)cc6ccccc56)ncc34)C[C@H]1N2` (racemic) [Example 339, 2-((1R,5S,6S)-3-(8-fluoro-2-((2-fluorotetrahydro-1H-pyrrolizin-7a(5H)-yl)methoxy)-7-(3-hydroxynaphthalen-1-yl)pyrido[4,3-d]pyrimidin-4-yl)-3,8-diazabicyclo[3.2.1]octan-6-yl)acetonitrile (racemic, trans)], the IC50 (in general, the point on the concentration scale where inhibition reaches its midpoint) stood at 21 nM on KRas G12D [1] and 8660 nM in data set [3] (setting [5]). For the same compound, the affinity on KRas G12D [2], expressed as Kd, was 21.6 nM.

As to `C#Cc1c(F)ccc2cc(O)cc(-c3ncc4c(N5C[C@H]6CC[C@@H](C5)N6C(=O)OCOC(=O)CCCCCCCCC)nc(OC[C@@]56CCCN5C[C@H](F)C6)nc4c3F)c12` [Example 471, (Decanoyloxy)methyl (1R,5S)-3-(7-(8-ethynyl-7-fluoro-3-hydroxynaphthalen-1-yl)-8-fluoro-2-(((2R,7aS)-2-fluorotetrahydro-1H-pyrrolizin-7a(5H)-yl)methoxy)pyrido[4,3-d]pyrimidin-4-yl)-3,8-diazabicyclo[3.2.1]octane-8-carboxylate], the “% remaining in human whole blood” value in data set [4] (time point 0 min) was found to be 100%; in data set [4] (time point 10 min), 105%; in data set [4] (time point 30 min), 77%; in data set [4] (time point 60 min) it was 51%; in data set [4] (time point 120 min) it was 31%.

As for `Oc1cc(-c2ncc3c(N4C[C@H]5CC[C@@H](C4)N5)nc(OCCCN4C[C@@H]5C[C@H]4CO5)nc3c2F)c2ccccc2c1` [Example 24, 4-(2-(3-((1S,4S)-2-oxa-5-azabicyclo[2.2.1]heptan-5-yl)propoxy)-4-((1R,5S)-3,8-diazabicyclo[3.2.1]octan-3-yl)-8-fluoropyrido[4,3-d]pyrimidin-7-yl)naphthalen-2-ol], the IC50 at KRas G12D [1] came out at 7.9 nM; in data set [3] (setting [5]), 2890 nM. On KRas G12D [2], binding was characterised by a dissociation constant (Kd) of 5 nM.

Take `CC(C)N1CCC[C@H]1COc1nc(N2C[C@H]3C[C@@H](O)[C@@H](C2)N3)c2cnc(-c3cccc4cccc(Cl)c34)c(F)c2n1` [Example 153, (1R,5R,6R)-3-(7-(8-chloronaphthalen-1-yl)-8-fluoro-2-(((S)-1-isopropylpyrrolidin-2-yl)methoxy)pyrido[4,3-d]pyrimidin-4-yl)-3,8-diazabicyclo[3.2.1]octan-6-ol]: the IC50 at KRas G12D [1] came out at 50.8 nM; in data set [3] (setting [5]) it was 2370 nM. Further, on KRas G12D [2], the affinity, expressed as Kd, was 70.5 nM.

For the compound `CN1CC[C@H](Oc2cccc(S(=O)(=O)F)c2)[C@H]1COc1nc(N2C[C@H]3CC[C@@H](C2)N3)c2cnc(-c3cccc4cccc(Cl)c34)c(F)c2n1` [Example 210, 3-(((2R,3S)-2-(((4-((1R,5S)-3,8-diazabicyclo[3.2.1]octan-3-yl)-7-(8-chloronaphthalen-1-yl)-8-fluoropyrido[4,3-d]pyrimidin-2-yl)oxy)methyl)-1-methylpyrrolidin-3-yl)oxy)benzenesulfonyl fluoride tris(2,2,2-trifluoroacetate)], the 50% inhibitory concentration (IC50) at KRas G12D [1] is 5460 nM; in data set [3] (AGS, 3 h) it was more than 16700 nM.

Take `CCc1cccc2cc(O)cc(-c3ncc4c(N5C[C@H]6CC[C@@H](C5)N6)nc(OC[C@]56CCCN5C[C@@H](F)C6)nc4c3F)c12` [Example 468, 4-(4-((1R,5S)-3,8-diazabicyclo[3.2.1]octan-3-yl)-8-fluoro-2-(((2S,7aR)-2-fluorohexahydro-1H-pyrrolizin-7a-yl)methoxy)pyrido[4,3-d]pyrimidin-7-yl)-5-ethylnaphthalen-2-ol]: the IC50 on KRas G12D [1] is less than 0.002 nM; in data set [3] (setting [5]) it was 28.8 nM.

For the compound `Oc1cc(-c2ncc3c(N4C[C@H]5CC[C@@H](C4)N5)nc(OCCN4C[C@@H]5C[C@H]4CO5)nc3c2F)c2ccccc2c1` [Example 26, 4-(2-(2-((1S,4S)-2-oxa-5-azabicyclo[2.2.1]heptan-5-yl)ethoxy)-4-((1R,5S)-3,8-diazabicyclo[3.2.1]octan-3-yl)-8-fluoropyrido[4,3-d]pyrimidin-7-yl)naphthalen-2-ol], the IC50 on KRas G12D [1] came to 42.1 nM; in data set [3] (setting [5]) it was 4280 nM. In addition, the Kd (as a rule, the constant that tells how readily two partners part at equilibrium) at KRas G12D [2] came to 27.9 nM.

Regarding `O[C@@H]1C[C@@H]2CN(c3nc(OCC45CCCN4CCC5)nc4c(F)c(-c5cccc6cccc(Cl)c56)ncc34)C[C@H]1N2` [Example 49, (1R,5R,6R)-3-(7-(8-chloronaphthalen-1-yl)-8-fluoro-2-((tetrahydro-1H-pyrrolizin-7a(5H)-yl)methoxy)pyrido[4,3-d]pyrimidin-4-yl)-3,8-diazabicyclo[3.2.1]octan-6-ol], the IC50 at KRas G12D [1] stood at 5.9 nM; in data set [3] (setting [5]), 2120 nM. Besides, binding at KRas G12D [2] was put at a Kd of 0.4 nM.

With `CCc1cccc2cccc(-c3ncc4c(N5CC6CCC(C5)N6)nc(OC[C@]56CCCN5[C@@H](COC(=O)NC)CC6)nc4c3F)c12` (single isomer, unassigned) [Example 432], the IC50 on KRas G12D [1] is 1.9 nM; in data set [3] (setting [5]), 106 nM.
